Data on ten sequences can be found in patent US20260250318A1, “COMPOSITIONS AND METHODS FOR CROSSING THE BLOOD BRAIN BARRIER” (VOYAGER THERAPEUTICS, INC., priority 2022, published 2026).

Experiment [1] concerns brains, heart, liver, muscle, and DRG of the NHPs. Description: Maturation of TTM-001 and TTM-002 capsids, NGS enrichment in NHP tissues. The experiment is classed as in vivo. As to conditions: relative to AAV9 control. Put shortly:
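Variants carry mutations within and flanking the loop IV peptide insert: positions 450–466 were triplet-randomized, while positions 449–466 received low-frequency point mutations. The combined pool went into two NHPs, and each peptide was scored by NGS enrichment ratio against AAV9.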

The test system of the next experiment is brain. Description: Matured TTM-001 and TTM-002 variants, NGS enrichment in mouse brain. The experiment is classed as in vivo, mice. The following applies: relative to AAV9 control.
[2] abbreviates: NGS fold-enrichment of matured AAV capsid variants, NHP brain, RNA.
The mark [3] stands for this setting: NGS fold-enrichment of RNA, NHP brain.
[4] abbreviates: NGS fold-enrichment, DRG of NHPs.
Setting [5] is: NGS fold-enrichment, NHP liver DNA.
Setting [6] is: NGS fold-enrichment, NHP liver RNA.
[7] abbreviates: NGS fold-enrichment, NHP muscle.
Setting [8] is: NGS fold-enrichment, RNA, brain of NHPs.
Where [9] appears, read: NGS fold-enrichment, heart of NHPs.
Setting [10] is: NGS fold-enrichment, liver DNA of NHPs.
The mark [11] stands for this setting: NGS fold-enrichment, liver RNA of NHPs.
Where [12] appears, read: NGS fold-enrichment, muscle of NHPs.
Where [13] appears, read: NGS fold-enrichment, brain of mice.
The mark [14] stands for this setting: NGS fold-enrichment, mouse brain.

With KTEGISGSPHSKAQNQQT, the “Fold Enrichment relative to AAV9, Brain (NHP)” value in experiment [1] (setting [2]) is given as 53.270 fold. Besides, in experiment [1] (NHP DRG), the “Fold Enrichment relative to AAV9, DRG (NHP)” value was 0.000 fold. In addition, the “Fold Enrichment relative to AAV9, Heart (NHP)” value in experiment [1] (NHP heart) is recorded as 0.000 fold. The “Fold Enrichment relative to AAV9, Liver DNA (NHP)” value in experiment [1] (NHP liver, DNA) came out at 0.010 fold. The “Fold Enrichment relative to AAV9, Liver RNA (NHP)” value in experiment [1] (NHP liver, RNA) is recorded as 0.000 fold. For the same sequence, the “Fold Enrichment relative to AAV9, Muscle (NHP)” value in experiment [1] (NHP muscle) is 0.000 fold. Further, in the experiment on brain (mouse brain), the “Fold Enrichment relative to AAV9, Brain (Mouse)” value is recorded as 78.303 fold.
With KTEKGSGSPHSKAQNQQT, the “Fold Enrichment relative to AAV9, Brain (NHP)” value in experiment [1] (setting [3]) and in experiment [1] (setting [8]) was 105.614 fold in each case. For the same sequence, the “Fold Enrichment relative to AAV9, DRG (NHP)” value in experiment [1] (setting [4]) is 0.053 fold; in experiment [1] (NGS fold-enrichment, NHP DRG), 0.053 fold. Further, the “Fold Enrichment relative to AAV9, Heart (NHP)” value was 0.031 fold in experiment [1] (NGS fold-enrichment, NHP heart) and 0.031 fold in experiment [1] (setting [9]). In addition, the “Fold Enrichment relative to AAV9, Liver DNA (NHP)” value in experiment [1] (setting [5]) and in experiment [1] (setting [10]) was 0.169 fold throughout. Moreover, the “Fold Enrichment relative to AAV9, Liver RNA (NHP)” value in experiment [1] (setting [6]) and in experiment [1] (setting [11]) was 0.586 fold in each case. In addition, the “Fold Enrichment relative to AAV9, Muscle (NHP)” value in experiment [1] (setting [7]) and in experiment [1] (setting [12]) was 0.000 fold each time. The “Fold Enrichment relative to AAV9, Brain (Mouse)” value with brain (setting [13]) and in the experiment with brain (setting [14]) was 84.653 fold in each case.
Take KTINGSGSPHAKAQNHQT: the “Fold Enrichment relative to AAV9, Brain (NHP)” value in experiment [1] (setting [2]) is listed as 50.667 fold. Besides, the “Fold Enrichment relative to AAV9, DRG (NHP)” value in experiment [1] (NHP DRG) was 0.211 fold. Also, the “Fold Enrichment relative to AAV9, Heart (NHP)” value in experiment [1] (NHP heart) turned out to be 0.140 fold. In addition, the “Fold Enrichment relative to AAV9, Liver DNA (NHP)” value in experiment [1] (NHP liver, DNA) stood at 0.090 fold. The “Fold Enrichment relative to AAV9, Liver RNA (NHP)” value in experiment [1] (NHP liver, RNA) is listed as 0.101 fold. Besides, the “Fold Enrichment relative to AAV9, Muscle (NHP)” value in experiment [1] (NHP muscle) was 0.051 fold. Further, in the experiment with brain (mouse brain), the “Fold Enrichment relative to AAV9, Brain (Mouse)” value amounted to 80.603 fold.
For the sequence KATNGSGSPHSKAQNHQT, the “Fold Enrichment relative to AAV9, Brain (NHP)” value in experiment [1] (setting [3]) and in experiment [1] (setting [8]) was 82.627 fold throughout. Moreover, the “Fold Enrichment relative to AAV9, DRG (NHP)” value in experiment [1] (setting [4]) is listed as 0.000 fold; in experiment [1] (NGS fold-enrichment, NHP DRG) it was 0.000 fold. Also, the “Fold Enrichment relative to AAV9, Heart (NHP)” value in experiment [1] (NGS fold-enrichment, NHP heart) stood at 0.176 fold; in experiment [1] (setting [9]) it was 0.176 fold. Further, the “Fold Enrichment relative to AAV9, Liver DNA (NHP)” value in experiment [1] (setting [5]) and in experiment [1] (setting [10]) was 0.057 fold each time. For the same sequence, the “Fold Enrichment relative to AAV9, Liver RNA (NHP)” value in experiment [1] (setting [6]) and in experiment [1] (setting [11]) was 0.155 fold in each case. In addition, the “Fold Enrichment relative to AAV9, Muscle (NHP)” value in experiment [1] (setting [7]) and in experiment [1] (setting [12]) was 0.000 fold throughout. Besides, the “Fold Enrichment relative to AAV9, Brain (Mouse)” value in the experiment with brain (setting [13]) and with brain (setting [14]) was 66.207 fold each time.
Turning to KAINGHDNPHKSGQNQQT, the “Fold Enrichment relative to AAV9, Brain (NHP)” value in experiment [1] (setting [3]) came out at 88.906 fold. Besides, the “Fold Enrichment relative to AAV9, DRG (NHP)” value in experiment [1] (NGS fold-enrichment, NHP DRG) is recorded as 0.297 fold. The “Fold Enrichment relative to AAV9, Heart (NHP)” value in experiment [1] (NGS fold-enrichment, NHP heart) is reported as 0.721 fold. Further, the “Fold Enrichment relative to AAV9, Liver DNA (NHP)” value in experiment [1] (setting [5]) amounted to 0.130 fold. In experiment [1] (setting [6]), the “Fold Enrichment relative to AAV9, Liver RNA (NHP)” value worked out at 0.222 fold. Moreover, in experiment [1] (setting [7]), the “Fold Enrichment relative to AAV9, Muscle (NHP)” value was determined as 0.482 fold. The “Fold Enrichment relative to AAV9, Brain (Mouse)” value in the experiment with brain (setting [14]) worked out at 9.702 fold.
KTINGHDSPHKIGLDQQT: in experiment [1] (setting [3]), the “Fold Enrichment relative to AAV9, Brain (NHP)” value is on record as 165.627 fold. In experiment [1] (NGS fold-enrichment, NHP DRG), the “Fold Enrichment relative to AAV9, DRG (NHP)” value came to 0.000 fold. For the same sequence, the “Fold Enrichment relative to AAV9, Heart (NHP)” value in experiment [1] (NGS fold-enrichment, NHP heart) came out at 0.000 fold. Further, the “Fold Enrichment relative to AAV9, Liver DNA (NHP)” value in experiment [1] (setting [5]) came to 0.000 fold. The “Fold Enrichment relative to AAV9, Liver RNA (NHP)” value in experiment [1] (setting [6]) came out at 1.942 fold. Further, in experiment [1] (setting [7]), the “Fold Enrichment relative to AAV9, Muscle (NHP)” value is recorded as 0.000 fold. In the experiment on brain (setting [14]), the “Fold Enrichment relative to AAV9, Brain (Mouse)” value was determined as 5.469 fold.
On to ETIKGSGSPHSKAQNQQT, for which the “Fold Enrichment relative to AAV9, DRG (NHP)” value in experiment [1] (setting [4]) is 0.000 fold. Besides, the “Fold Enrichment relative to AAV9, Brain (NHP)” value in experiment [1] (setting [8]) turned out to be 64.609 fold. Also, in experiment [1] (setting [9]), the “Fold Enrichment relative to AAV9, Heart (NHP)” value was found to be 0.000 fold. The “Fold Enrichment relative to AAV9, Liver DNA (NHP)” value in experiment [1] (setting [10]) was 0.024 fold. The “Fold Enrichment relative to AAV9, Liver RNA (NHP)” value in experiment [1] (setting [11]) worked out at 0.000 fold. Moreover, the “Fold Enrichment relative to AAV9, Muscle (NHP)” value in experiment [1] (setting [12]) worked out at 0.144 fold. The “Fold Enrichment relative to AAV9, Brain (Mouse)” value in the experiment on brain (setting [13]) stood at 67.201 fold.
As for KTVIGSGSPHSKALNQQT, the “Fold Enrichment relative to AAV9, DRG (NHP)” value in experiment [1] (setting [4]) turned out to be 0.000 fold. The “Fold Enrichment relative to AAV9, Brain (NHP)” value in experiment [1] (setting [8]) is listed as 62.358 fold. The “Fold Enrichment relative to AAV9, Heart (NHP)” value in experiment [1] (setting [9]) was 0.310 fold. The “Fold Enrichment relative to AAV9, Liver DNA (NHP)” value in experiment [1] (setting [10]) is 0.245 fold. In experiment [1] (setting [11]), the “Fold Enrichment relative to AAV9, Liver RNA (NHP)” value is listed as 0.062 fold. Further, in experiment [1] (setting [12]), the “Fold Enrichment relative to AAV9, Muscle (NHP)” value was 0.000 fold. Besides, the “Fold Enrichment relative to AAV9, Brain (Mouse)” value in the experiment on brain (setting [13]) is listed as 60.369 fold.
As to KTEKASGSPHSKAQNQQT, the “Fold Enrichment relative to AAV9, Brain (NHP)” value in experiment [1] (setting [3]) and in experiment [1] (setting [8]) was 80.285 fold in each case. The “Fold Enrichment relative to AAV9, DRG (NHP)” value in experiment [1] (setting [4]) is reported as 0.000 fold; in experiment [1] (NGS fold-enrichment, NHP DRG), 0.000 fold. In addition, the “Fold Enrichment relative to AAV9, Heart (NHP)” value amounted to 0.041 fold in experiment [1] (NGS fold-enrichment, NHP heart) and 0.041 fold in experiment [1] (setting [9]). Besides, the “Fold Enrichment relative to AAV9, Liver DNA (NHP)” value in experiment [1] (setting [5]) and in experiment [1] (setting [10]) was 0.261 fold in each case. The “Fold Enrichment relative to AAV9, Liver RNA (NHP)” value in experiment [1] (setting [6]) and in experiment [1] (setting [11]) was 0.000 fold in each case. Moreover, the “Fold Enrichment relative to AAV9, Muscle (NHP)” value in experiment [1] (setting [7]) and in experiment [1] (setting [12]) was 0.000 fold each time. Moreover, the “Fold Enrichment relative to AAV9, Brain (Mouse)” value in the experiment with brain (setting [13]) and with brain (setting [14]) was 90.390 fold each time.
As for KAINGSGSPHSKAQDQET, the “Fold Enrichment relative to AAV9, Brain (NHP)” value in experiment [1] (setting [3]) and in experiment [1] (setting [8]) was 84.080 fold each time. The “Fold Enrichment relative to AAV9, DRG (NHP)” value was 0.000 fold in experiment [1] (setting [4]) and 0.000 fold in experiment [1] (NGS fold-enrichment, NHP DRG). In addition, the “Fold Enrichment relative to AAV9, Heart (NHP)” value was determined as 0.000 fold in experiment [1] (NGS fold-enrichment, NHP heart) and 0.000 fold in experiment [1] (setting [9]). Further, the “Fold Enrichment relative to AAV9, Liver DNA (NHP)” value in experiment [1] (setting [5]) and in experiment [1] (setting [10]) was 0.027 fold throughout. Also, the “Fold Enrichment relative to AAV9, Liver RNA (NHP)” value in experiment [1] (setting [6]) and in experiment [1] (setting [11]) was 0.194 fold in each case. Besides, the “Fold Enrichment relative to AAV9, Muscle (NHP)” value in experiment [1] (setting [7]) and in experiment [1] (setting [12]) was 0.000 fold throughout. In addition, the “Fold Enrichment relative to AAV9, Brain (Mouse)” value with brain (setting [13]) and in the experiment on brain (setting [14]) was 87.637 fold throughout.
